Data published in patent US20260272943A1, “Acyl Ethyl Ester Polycyclic Compound, and Pharmaceutical Composition and Use Thereof” (priority 2023, published 2026).
In brackets after ≈: the same amount, converted by molar mass.

Key:
[1] = test system: H1N1 influenza A virus strain A/FM/1/47; assay: Anti-influenza virus activity in vitro (inhibition of virus replication in MDCK cells); assay type: cell-based; conditions: 72 h, read-out: EC50 for in vitro inhibition of replication of H1N1 (FM1) influenza virus
[2] = PK study in rats, single oral gavage; assay type: in vivo; conditions: SD rats, single oral gavage 3.0 mg/kg
Protocol: SD rats were administered in a single oral gavage administration with different groups of drugs, including compound I-1-1-2, compound I-1-1-3, compound I-1-1-6, compound I-20, compound II-5, and Baloxavir Marboxil. After administration, plasma at different time points were collected to detect the drug content, and the pharmacokinetic parameters of different groups of drugs in SD rats were calculated and compared.
48 SD rats, weighing 180 g-220 g, with half male and half female, were randomly assigned to 6 groups according to their body weight, with 8 rats in each group. Animal grouping information was as follows:
(§1) After SD rats were randomly assigned to groups, they were fasted for more than 12 hours before administration and were allowed to drink water freely. Drinking water was prohibited from 1 hour before administration to 1 hour after administration. Food was provided 4 hours after administration. Each group was administered with a single oral gavage dose of 3.0 mg/kg. Approximately 0.2 mL of jugular vein blood was collected at 0 h before administration and 5 min, 10 min, 15 min, 30 min, 1 h, 2 h, 4 h, 6 h, 10 h, 24 h and 30 h after administration, and placed in EDTA-K2 anticoagulation tubes.
(§2) After the whole blood was collected, the plasma was separated by centrifugation at 4000 rpm for 10 min at 4° C., and then stored in a refrigerator at −80° C. for testing. The plasma drug concentration of samples in each group was determined by LC-MS/MS.
PK parameters were calculated using a non-compartmental model in Phoenix winnonlin 8.0. Data analysis included Cmax, Tmax, AUC0-t, AUC0-∞∞, t1/2 and other pharmacokinetic parameters.

[3] = PK study in cynomolgus monkeys, single oral gavage; assay type: in vivo; conditions: single oral gavage 5.0 mg/kg
Protocol: Cynomolgus monkeys were administered with a single oral gavage with different groups of drugs, including compound I-1-1-2, compound I-1-1-3 and Baloxavir Marboxil. After administration, plasma at different time points were collected to detect the drug content, and the pharmacokinetic parameters of different groups of drugs in cynomolgus monkeys were calculated and compared.
24 cynomolgus monkeys, aged 3-5 years old and weighing 3 kg-7 kg, with half male and half female, were used and randomly assigned to 3 groups according to their body weight, with 8 monkeys in each group. Animal grouping information was as follows:
as §1, with “After cynomolgus monkeys” for “After SD rats”, “of 5.0” for “of 3.0”, “Approximately 1.0” for “Approximately 0.2”, “h, 8 h, 12” for “h, 10”, “24 h, and 48” for “24”, “h (D2)” for “h and 30 h”
as §2
PK parameters were calculated using non-compartmental model in a Phoenix winnonlin 8.0. Data analysis included Cmax, Tmax, AUC0-t, AUC0-∞∞, t1/2 and other pharmacokinetic parameters.

SMILES	EC50 [1] [µg/mL]	Bioavailability (Cmax and AUC0-t) compared with Compound I-20 and Compound II-5 groups [2]	further results
CC(=O)O[C@@H](C)Oc1c2n(ccc1=O)N([C@@H]1c3ccccc3SCc3c1ccc(F)c3F)[C@@H]1COCCN1C2=O [Compound I-1-1-1]	0.32 (≈ 0.562 µM)		
COC(=O)OCOc1c2n(ccc1=O)N([C@@H]1c3ccccc3SCc3c1ccc(F)c3F)[C@@H]1COCCN1C2=O [Baloxavir Marboxil, reference compound]	0.32 (≈ 0.56 µM)	significantly improved	
CC(=O)OC(C)Oc1c2n(ccc1=O)N([C@@H]1c3ccccc3SCc3c1ccc(F)c3F)[C@@H]1COCCN1C2=O (some centres unmarked) [Compound I-1-1-3]	0.32 (≈ 0.562 µM)	significantly improved	Bioavailability (Cmax and AUC0-t) compared with Baloxavir Marboxil group [2]: significantly improved; Bioavailability (Cmax and AUC0-t) compared with Baloxavir Marboxil group [3]: significantly improved
CC(=O)OC(C)Oc1c2n(ccc1=O)N([C@@H]1c3ccccc3[Se]Cc3c1ccc(F)c3F)[C@@H]1COCCN1C2=O (some centres unmarked) [Compound I-1-1-6]	0.32 (≈ 0.519 µM)		
CC(=O)O[C@H](C)Oc1c2n(ccc1=O)N([C@@H]1c3ccccc3SCc3c1ccc(F)c3F)[C@@H]1COCCN1C2=O [Compound I-1-1-2]	0.032 (≈ 0.0562 µM)	significantly improved	Bioavailability (Cmax and AUC0-t) compared with Baloxavir Marboxil group [2]: significantly improved; Half-life (t1/2) rank among groups [2]: longest half-life; Bioavailability (Cmax and AUC0-t) compared with Baloxavir Marboxil group [3]: significantly improved; Exposure rank among groups [3]: highest exposure; Half-life rank among groups [3]: longest half-life
CC(=O)OCOc1c2n(ccc1=O)N([C@@H]1c3ccccc3SCc3c1ccc(F)c3F)[C@@H]1COCCN1C2=O [Compound II-5, reference compound]	0.32 (≈ 0.576 µM)		
[2H]C([2H])([2H])C(=O)OC(C)Oc1c2n(ccc1=O)N([C@@H]1c3ccccc3SCc3c1ccc(F)c3F)[C@@H]1COCCN1C2=O (some centres unmarked) [Compound I-20, reference compound]	0.32 (≈ 0.559 µM)		
